Measurements: patent US20100311726A1, “REDUCTION OF BETA-AMYLOID LEVELS BY TREATMENT WITH THE SMALL MOLECULE DIFFERENTIATION-INDUCING FACTOR” (priority 2007, published 2010)

Tests used:
CHO cells = test: Cell proliferation assay (haemocytometer counts); format: cell-based, Chinese Hamster
Text: For proliferation assays, 1×10^4 cells were deposited into 24-well plates and treated with vehicle (ethanol or DMSO) or with various amounts of DIF-1 or DIF-3 for a period of 4 days. Cells were harvested after each day by trypsin/EDTA treatment, stained with an equal volume of 0.05% Trypan blue and enumerated in triplicate twice using a haemocytometer. Dead cells are stained blue, but live cells with intact cell membranes are not coloured. Data represents the mean cell number±the standard deviation for at least 3 separate experiments.
We therefore assessed the dose-dependent anti-proliferative effect of DIF-1 on normal (non-transformed) CHO cells (FIG. 1A). Briefly, CHO cells were seeded on a 6-well plate (10,000 cells/well) and were incubated with 25 μM DIF-1. Cells were harvested by the trypsin/EDTA treatment at the times indicated and counted with a haemocytometer. […] Therefore, for this study we only analyzed the effect of DIF-1 between 18 and 20 hours.

APPT668A and APPT668E = test: APP processing in CHO cells expressing APP T668A or T668E; format: cell-based, human; conditions: 30 μM
Text: To assess whether or not the decrease in phosphorylated APP seen in DIF-1 treated cells contributed mechanistically to the reduction of maturation, secretion and metabolic processing of APP^751, mutants were generated using APP^751 in which T724 (APP^751 numbering) was mutated to either an alanine residue such that phosphorylation could not occur, or a glutamic acid residue that should mimic constitutive phosphorylation of APP. APP^751, Isoform B, NM_201413 was used as a template. We essentially used Stratagene's QuickChange® Site-Directed Mutagenesis Kit (Catalog #200518) to create the desired mutations as recommended by the manufacturer with the following exceptions. The APP^751 codon for threonine 724 (ACC) was mutated to code for Alanine (A) (GCC) and Glutamic Acid (E) (GAA), respectively. The following mutagenesis primers were used to create each mutation. […]
Cells were diluted and plated in multiple 10 cm tissue culture dishes and allowed to recover overnight in Dulbecco's modified Eagle's medium containing 4.5 mg/ml D-glucose supplemented with 10% fetal bovine serum and 100 units/ml penicillin, 100 μg/ml streptomycin, 2 mM L-glutamine (Sigma) at 37° C. in a 5% CO2 atmosphere. […] Protein extracts were assessed for APPT724A and APPT724E expression levels compared to naïve cells by western blot using polyclonal anti-APP C-terminal antibodies (C66). […]

Dictyostelium discoideum = conditions: Masento et al., 1988; cited from earlier work
[1] = tested on: APP phosphorylation on residue T668; test: APP T668 phosphorylation by western blot; format: cell-based, human; conditions: CHO-7W and CHO-CAB; DAPT alone, or DAPT with DIF-1 (30 μM)
Protocol: Next, whether or not DIF-1 treatment affected the degree of T668 phosphorylation was examined by western blot (FIG. 11). Briefly, effects of DIF-1 on APP T668 phosphorylation were compared between vehicle-treated control and 250 nM of DAPT identically in each cell line. Western analysis of 15 μg of total protein was probed overnight at 4° C. with anti-APP Cterminal antibody (C66-676-695) (1:5000) and then detected on film using ECL and HRP-conjugated secondary antibodies (1:5000). […] This band has also been detected in other CHO lines where APP expression is high (˜3 fold) and by different C-terminal APP antibodies (Ab8717-676-695; except 6E10 which recognizes the N-terminal residues 1-17 of the Aβ sequence. For FIG. 11A, cells were treated with DAPT, and DAPT+DIF then were probed with anti-APP antibody (C66). For FIG. 11B, CHO-7W cells were treated with DAPT, and DAPT+DIF, and then probed with polyclonal anti-P668 APP antibody (1:1000) overnight at 4° C. in 5% BSA. After washing, cells were probed with a rabbit HRP-conjugated secondary antibody (1:5000) in BSA for 1 hour at room temperature and signals were detected on film using ECL. FIG. 11C represents CHO-CAB cells and FIG. 11D represents H4 cells expressing APP^SW.

## CCCCCC(=O)c1c(O)c(Cl)c(OC)c(Cl)c1O [DIF-1, 1-[3,5-dichloro-2,6-dihydroxy-4-methoxyphenyl]-1-hexanone]
CHO cells; 25 μM, 24 hours
  inhibition of growth: minor, yet insignificant inhibition of growth
CHO cells; after 72 hours, all cell lines tested (e.g. CHO, N2a and SH-SY5Y)
  decrease in proliferation compared to control and vehicle treated cells: 70-75%
CHO cells; washing treated cells with PBS and fresh growth media
  reversibility of antiproliferative effect: readily reversed
APPT668A and APPT668E
  effect of DIF-1 on APP maturation and CTFs in T668A or T668E mutant APP: completely abolished the effect of DIF-1 on APP maturation and the reduction of both αCTF and βCTF levels
Dictyostelium discoideum
  absolute specific activity in stalk-cell differentiation: sub-nanomolar range
[1]
  amount of T668 phosphorylated APP CTFs: large reduction in the amount of T668 phosphorylated APP CTFs
